Source: publication PMC10051608, “Multi-Compartmental Dissolution Method, an Efficient Tool for the Development of Enhanced Bioavailability Formulations Containing Poorly Soluble Acidic Drugs” (Pharmaceutics, 2023)
In brackets after ≈: the same amount, converted by molar mass.

Key:
[1] = pH-dependent equilibrium solubility, saturation shake-flask method in Britton-Robinson buffers and 1 M NaOH; type: physicochemical; conditions: 37 °C; for solubility thermodynamic at 6 h: aqueous buffer, thermodynamic from solid, mean of 3, read-out: SpH ± SD
Method: The saturation shake–flask method was used to determine the equilibrium solubility of the API [34, 35]. The measurements were carried out at 37 ± 0.1 °C. […] In case it was necessary, the pH was adjusted to the initial value with 1M NaOH solution after 1 h. The flasks were then placed in a GFL 1092 type shaking water bath (GFL GmbH, Burgwedel, Germany) and shaken at 150 rpm for 6 h. The agitation phase was followed by 18 h sedimentation at controlled temperature. A total of 3 aliquot (10–100 µL) samples were then taken from the saturated solution and diluted to the required extent (2–250x) with the tested medium. The concentration was measured by UV spectroscopy at λmax: 264 nm. […] In each medium, the solubility experiments were performed in triplicate.

[2] = Equilibrium solubility in biorelevant media, saturation shake-flask method; type: physicochemical; conditions: for solubility thermodynamic at 6 h: thermodynamic from solid, read-out: SpH ± SD; for increase in solubility: biorelevant media
Method: The saturation shake–flask method was used to determine the equilibrium solubility of the API [34, 35]. The measurements were carried out at 37 ± 0.1 °C. […] In case it was necessary, the pH was adjusted to the initial value with 1M NaOH solution after 1 h. The flasks were then placed in a GFL 1092 type shaking water bath (GFL GmbH, Burgwedel, Germany) and shaken at 150 rpm for 6 h. The agitation phase was followed by 18 h sedimentation at controlled temperature. A total of 3 aliquot (10–100 µL) samples were then taken from the saturated solution and diluted to the required extent (2–250x) with the tested medium. The concentration was measured by UV spectroscopy at λmax: 264 nm. […] In each medium, the solubility experiments were performed in triplicate. […] The equilibrium solubility was also investigated in biorelevant media modelling gastric and small intestinal fluid in a fasted and fed state with and without solubilizing agents (pepsin or lecithin and bile acid salts). The tested biorelevant media were Blank FaSSGF, FaSSGF, Blank FaSSIF, FaSSIF, FeSSGF-acetate (without milk), Blank FeSSIF, and FeSSIF.

[3] = literature data measured at 25 °C; cited from earlier work

With `CC(C)Cc1ccc(C(C)C(=O)O)cc1` (stereo not drawn) [ibuprofen] the solubility thermodynamic at 6 h ([1]; BR (Britton-Robinson) buffer, pH 1.92 (nominal pH 2.0) BR buffer) was 70.8 ± 3 µg/mL (≈ 0.343 mM), the solubility thermodynamic at 6 h ([1]; BR (Britton-Robinson) buffer, pH 3.96 BR buffer) was 124 ± 13 µg/mL (≈ 0.601 mM) and the solubility thermodynamic at 6 h ([1]; BR (Britton-Robinson) buffer, pH 5.95 BR buffer) was 1910 ± 70 µg/mL (≈ 9.26 mM). The solubility thermodynamic at 6 h ([1]; BR (Britton-Robinson) buffer, pH 7.17 BR buffer) was 32000 µg/mL (≈ 155 mM), the solubility thermodynamic at 6 h ([1]; BR (Britton-Robinson) buffer, pH 8.02 BR buffer) was 300000 µg/mL (≈ 1450 mM) and the solubility thermodynamic at 6 h ([1]; pH 14, 1 M NaOH) was 734000 µg/mL (≈ 3560 mM). The logSpH ([1]; pH 1.92 (nominal pH 2.0) BR buffer) was −3.46 mol/L, the logSpH ([1]; pH 3.96 BR buffer) was −3.22 mol/L and the logSpH ([1]; pH 5.95 BR buffer) was −2.03 mol/L. It also gave a logSpH ([1]; pH 7.17 BR buffer) of −0.81 mol/L, a logSpH ([1]; pH 8.02 BR buffer) of 0.16 mol/L and a logSpH ([1]; pH 14, 1 M NaOH) of 0.55 mol/L. It also gave a solubility thermodynamic at 6 h ([2]; FeSSGF-acetate (without milk), fassgf or other biorelevant, FeSSGF-acetate, pH 4.5, 37 °C) of 194 ± 2 µg/mL (≈ 0.94 mM), an increase in solubility ([2]; changing the pH from 1.6 to 4.5) of 3.4 fold and an increase in solubility ([2]; changing the pH from 1.6 to 5.0) of 7.4 fold. The increase in solubility ([2]; changing the pH from 1.6 to 6.5) was 44.6 fold, the solubility thermodynamic at 6 h ([2]; fassgf or other biorelevant, FeSSIF blank, pH 5.0, 37 °C) was 416 ± 12 µg/mL (≈ 2.02 mM) and the “effect of pepsin on solubility” value ([2]; gastric pH) was “no effect”. The solubility thermodynamic at 6 h ([2]; FaSSIF, pH 6.5, 37 °C) was 3160 ± 31 µg/mL (≈ 15.3 mM), the solubility thermodynamic at 6 h ([2]; FeSSIF, pH 5.0, 37 °C) was 2100 ± 56 µg/mL (≈ 10.2 mM) and the “intrinsic solubility logS0” value [3] was −3.62.
